Measurements published in ChEMBL document CHEMBL1201862, “PubChem BioAssay data set” (2004).
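Method: 48-hour compound exposure of cells in 96-well plates, five concentrations, linear interpolation of endpoints. GI50 is the concentration that inhibits growth by half.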 Activity calls are given as the source filed them. No stated cut-off is given here; in the data, active = GI50 up to about 1.1 µM and inactive = higher.

Tests used:
Assay in all cases: DTP human tumour cell line panel, 48 h
A549 = system: A549
CCRF-CEM = system: CCRF-CEM
COLO 205 = system: COLO 205
DLD-1 = system: DLD-1
DMS-114 = system: DMS-114
EKVX = system: EKVX
HCT-116 = system: HCT-116
HL-60 = system: HL-60
HOP-62 = system: HOP-62
HOP-92 = system: HOP-92
HT-29 = system: HT-29
IGROV-1 = system: IGROV-1
K562 = system: K562
KM-20L2 = system: KM-20L2
KM12 = system: KM12
LXFL 529 = system: LXFL 529
M14 = system: M14
M19-MEL = system: M19-MEL
MOLT-4 = system: MOLT-4
Malme-3M = system: Malme-3M
NCI-H23 = system: NCI-H23
NCI-H460 = system: NCI-H460
NCI-H522 = system: NCI-H522
OVCAR-3 = system: OVCAR-3
OVCAR-4 = system: OVCAR-4
OVCAR-5 = system: OVCAR-5
OVCAR-8 = system: OVCAR-8
RPMI-8226 = system: RPMI-8226
RXF 393 = system: RXF 393
SF-268 = system: SF-268
SF-295 = system: SF-295
SF-539 = system: SF-539
SK-MEL-28 = system: SK-MEL-28
SK-MEL-2 = system: SK-MEL-2
SK-MEL-5 = system: SK-MEL-5
SK-OV-3 = system: SK-OV-3
SN12C = system: SN12C
SNB-19 = system: SNB-19
SNB-75 = system: SNB-75
SR = system: SR
SW-620 = system: SW-620
TK-10 = system: TK-10
U-251 = system: U-251
UACC-257 = system: UACC-257
UACC-62 = system: UACC-62
UO-31 = system: UO-31
XF498 = system: XF498
786-0 = system: 786-0
A498 = system: A498
ACHN = system: ACHN
BT-549 = system: BT-549
CAKI-1 = system: CAKI-1
DU-145 = system: DU-145
HCC 2998 = system: HCC 2998
HCT-15 = system: HCT-15
Hs-578T = system: Hs-578T
LOX IMVI = system: LOX IMVI
MCF7 = system: MCF7
MDA-MB-231 = system: MDA-MB-231
MDA-MB-435 = system: MDA-MB-435
MDA-N = system: MDA-N
NCI-H226 = system: NCI-H226
NCI/ADR-RES = system: NCI/ADR-RES
PC-3 = system: PC-3
T47D = system: T47D

For `O=C1C(Cl)N(c2ccc([N+](=O)[O-])cc2)C1c1c[nH]c2ccccc12` (stereo unspecified), the GI50 (A549) was > 100 µM (inactive), the GI50 (CCRF-CEM) was 9.25 µM (inactive) and the GI50 (COLO 205) was > 100 µM (inactive). For the same compound, the GI50 (DLD-1) was 38.1 µM (inactive), the GI50 (DMS-114) was 38 µM (inactive) and the GI50 (EKVX) was > 100 µM (inactive). For the same compound, the GI50 (HCT-116) was 55.5 µM (inactive), the GI50 (HL-60) was 31 µM (inactive) and the GI50 (HOP-62) was > 100 µM (inactive). For the same compound, the GI50 (HOP-92) was 83 µM (inactive), the GI50 (HT-29) was 48.1 µM (inactive) and the GI50 (IGROV-1) was 77.6 µM (inactive). The GI50 (K562) was 55 µM (inactive), the GI50 (KM-20L2) was 41.2 µM (inactive) and the GI50 (KM12) was 66.2 µM (inactive). The GI50 (LXFL 529) was 36.2 µM (inactive), the GI50 (M14) was 64.7 µM (inactive) and the GI50 (M19-MEL) was > 100 µM (inactive). For the same compound, the GI50 (MOLT-4) was 28.6 µM (inactive), the GI50 (Malme-3M) was 42.1 µM (inactive) and the GI50 (NCI-H23) was 86.9 µM (inactive). The GI50 (NCI-H460) was 41.7 µM (inactive), the GI50 (NCI-H522) was 56.8 µM (inactive) and the GI50 (OVCAR-3) was 47.8 µM (inactive). The GI50 (OVCAR-4) was 53 µM (inactive), the GI50 (OVCAR-5) was > 100 µM (inactive) and the GI50 (OVCAR-8) was > 100 µM (inactive). The GI50 (RPMI-8226) was 30.8 µM (inactive), the GI50 (RXF 393) was > 100 µM (inactive) and the GI50 (SF-268) was > 100 µM (inactive). The GI50 (SF-295) was > 100 µM (inactive), the GI50 (SF-539) was 33 µM (inactive) and the GI50 (SK-MEL-28) was > 100 µM (inactive). The GI50 (SK-MEL-2) was > 100 µM (inactive), the GI50 (SK-MEL-5) was > 100 µM (inactive) and the GI50 (SK-OV-3) was 56.6 µM (inactive). For the same compound, the GI50 (SN12C) was > 100 µM (inactive), the GI50 (SNB-19) was > 100 µM (inactive) and the GI50 (SNB-75) was > 100 µM (inactive). The GI50 (SR) was 19.5 µM (inactive), the GI50 (SW-620) was > 100 µM (inactive) and the GI50 (TK-10) was > 100 µM (inactive). The GI50 (U-251) was 62.5 µM (inactive), the GI50 (UACC-257) was 64.1 µM (inactive) and the GI50 (UACC-62) was 51.3 µM (inactive). For the same compound, the GI50 (UO-31) was 38.3 µM (inactive) and the GI50 (XF498) was > 100 µM (inactive).
`Cc1cccc2c1CC(C1OC(=O)c3c(C)cccc31)C2=O` (stereo unspecified) was tested, and the GI50 (786-0) was > 100 µM (inactive), the GI50 (A498) was > 100 µM (inactive) and the GI50 (A549) was > 100 µM (inactive). For the same compound, the GI50 (ACHN) was > 100 µM (inactive), the GI50 (BT-549) was > 100 µM (inactive) and the GI50 (CAKI-1) was > 100 µM (inactive). For the same compound, the GI50 (CCRF-CEM) was > 100 µM (inactive), the GI50 (COLO 205) was > 100 µM (inactive) and the GI50 (DU-145) was > 100 µM (inactive). For the same compound, the GI50 (EKVX) was > 100 µM (inactive), the GI50 (HCC 2998) was > 100 µM (inactive) and the GI50 (HCT-116) was > 100 µM (inactive). For the same compound, the GI50 (HCT-15) was > 100 µM, the GI50 (HL-60) was > 100 µM (inactive) and the GI50 (HOP-62) was > 100 µM (inactive). For the same compound, the GI50 (HOP-92) was > 100 µM (inactive), the GI50 (HT-29) was > 100 µM (inactive) and the GI50 (Hs-578T) was > 100 µM (inactive). The GI50 (IGROV-1) was > 100 µM (inactive), the GI50 (K562) was > 100 µM (inactive) and the GI50 (KM12) was > 100 µM (inactive). For the same compound, the GI50 (LOX IMVI) was 70.6 µM (inactive), the GI50 (M14) was > 100 µM (inactive) and the GI50 (MCF7) was > 100 µM (inactive). The GI50 (MDA-MB-231) was > 100 µM (inactive), the GI50 (MDA-MB-435) was > 100 µM (inactive) and the GI50 (MDA-N) was > 100 µM (inactive). The GI50 (MOLT-4) was > 100 µM (inactive), the GI50 (Malme-3M) was > 100 µM (inactive) and the GI50 (NCI-H226) was > 100 µM (inactive). The GI50 (NCI-H23) was > 100 µM (inactive), the GI50 (NCI-H460) was > 100 µM (inactive) and the GI50 (NCI-H522) was 15.7 µM (inactive). For the same compound, the GI50 (NCI/ADR-RES) was > 100 µM (inactive), the GI50 (OVCAR-3) was > 100 µM (inactive) and the GI50 (OVCAR-4) was > 100 µM (inactive). The GI50 (OVCAR-5) was > 100 µM (inactive), the GI50 (OVCAR-8) was > 100 µM (inactive) and the GI50 (PC-3) was > 100 µM (inactive). For the same compound, the GI50 (RPMI-8226) was 88.5 µM (inactive), the GI50 (RXF 393) was > 100 µM (inactive) and the GI50 (SF-268) was > 100 µM (inactive). For the same compound, the GI50 (SF-295) was > 100 µM (inactive), the GI50 (SF-539) was > 100 µM (inactive) and the GI50 (SK-MEL-28) was > 100 µM (inactive). For the same compound, the GI50 (SK-MEL-2) was > 100 µM (inactive), the GI50 (SK-MEL-5) was > 100 µM (inactive) and the GI50 (SK-OV-3) was > 100 µM (inactive). The GI50 (SN12C) was > 100 µM (inactive), the GI50 (SNB-19) was > 100 µM (inactive) and the GI50 (SNB-75) was > 100 µM (inactive). The GI50 (SR) was > 100 µM (inactive), the GI50 (SW-620) was > 100 µM (inactive) and the GI50 (T47D) was > 100 µM (inactive). For the same compound, the GI50 (TK-10) was > 100 µM (inactive), the GI50 (U-251) was > 100 µM (inactive) and the GI50 (UACC-257) was > 100 µM (inactive). The GI50 (UACC-62) was > 100 µM (inactive) and the GI50 (UO-31) was > 100 µM (inactive).
